Some test systems named below: HCT-15 colon; HT29 colon; MDA-MB-435; MDA-N; NCI-H226 lung; NCI-H522 lung; SF-539 CNS; SK-MEL-5 melanoma; SNB-19 CNS; SR leukemia.
Holding throughout (assay): NCI tumour cell line growth inhibition, 48 h

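Growth conditions: 96-well plates. Treatment: test compound, 48 hours, 5 concentrations. Analysis: linear interpolation between bracketing concentrations; unreached endpoints set to highest concentration. TGI denotes the concentration required for complete inhibition of growth.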

Regarding `C#CC1(O)CCCCCCCCC2(CCCCCCCC1)OCCO2`, the TGI in the assay on HCT-15 colon worked out at 39.1 µM; in the assay with HT29 colon, 35.4 µM; with MDA-MB-435, 33.5 µM; with MDA-N, 35.9 µM; with NCI-H226 lung, 34 µM; in the assay on NCI-H522 lung, 6.42 µM. The TGI in the assay on SF-539 CNS was 31.8 µM; in the assay with SK-MEL-5 melanoma it was 33.4 µM; with SNB-19 CNS it was 33 µM; in the assay on SR leukemia it was 34.3 µM.
As to `CCOC(=O)c1c(NC(=S)Nc2ccccc2)sc2c1CCOC2`, the TGI in the assay on HCT-15 colon, in the assay with HT29 colon, in the assay on MDA-MB-435, in the assay with MDA-N, with NCI-H226 lung and in the assay on NCI-H522 lung was above 100 µM each time. Moreover, the TGI in the assay with SF-539 CNS, with SK-MEL-5 melanoma, in the assay with SNB-19 CNS and with SR leukemia was above 100 µM in each case.
Take `CN(C)c1ccc(C=C2C(=O)NC(=S)NC2=O)c2ccccc12`: the TGI in the assay with HCT-15 colon is above 100 µM; with HT29 colon, above 100 µM; with MDA-MB-435 it was above 100 µM; with MDA-N it was above 100 µM; with NCI-H226 lung, above 100 µM; in the assay with NCI-H522 lung it was 37.5 µM. Also, the TGI in the assay on SF-539 CNS, in the assay with SK-MEL-5 melanoma, in the assay on SNB-19 CNS and in the assay with SR leukemia was above 100 µM in each case.
With `COC(=O)/C=C1/OC(c2ccc(OC)cc2)=C(Cl)C1=O`, the TGI with HCT-15 colon stood at 33.9 µM; in the assay on HT29 colon, 36.5 µM; with MDA-MB-435, 30.4 µM; in the assay on MDA-N it was 32.7 µM; in the assay with NCI-H226 lung it was 51.1 µM; in the assay on NCI-H522 lung, 28.6 µM. The TGI in the assay with SF-539 CNS was determined as 41 µM; with SK-MEL-5 melanoma, 27.2 µM; with SNB-19 CNS, 52.8 µM; in the assay with SR leukemia it was 9.53 µM.
In the case of `COc1ccc(/C=C2\C[C@H]3[C@@H]4CCC5=CC(=O)CC[C@]5(C)[C@H]4CC[C@]3(C)C2=O)cc1OC`, the TGI was above 100 µM in the assay on HCT-15 colon; above 100 µM in the assay on HT29 colon; above 100 µM in the assay on MDA-MB-435; above 100 µM in the assay on MDA-N; above 100 µM with NCI-H226 lung; 9.87 µM in the assay with NCI-H522 lung. Further, the TGI in the assay with SF-539 CNS was above 100 µM; in the assay on SK-MEL-5 melanoma, 5.45 µM; in the assay on SNB-19 CNS, above 100 µM; in the assay on SR leukemia it was 7.4 µM.
For `CCOc1cc2c(c(OCC)c1O)CC[C@@H]1[C@@H]2CC[C@]2(C)[C@@H](O)CC[C@@H]12`, the TGI in the assay on HCT-15 colon is 14 µM; with HT29 colon, 24.7 µM; with MDA-MB-435, 3.05 µM; in the assay with MDA-N it was 1.58 µM; in the assay on NCI-H226 lung, above 100 µM; in the assay on NCI-H522 lung it was 23.1 µM. Further, the TGI in the assay with SF-539 CNS is 6.71 µM; in the assay with SK-MEL-5 melanoma it was 21.5 µM; with SNB-19 CNS, above 100 µM; in the assay with SR leukemia it was 28 µM.
With `COC(=O)CCC(NC(=O)OC(C)(C)C)C(=O)NC(Cc1ccc(NC(=O)CCCC(C)=O)cc1)C(=O)NC(CCC(=O)OC)C(=O)OC` (stereo not given), the TGI in the assay on HCT-15 colon, with HT29 colon, with MDA-MB-435, in the assay on MDA-N, in the assay with NCI-H226 lung and with NCI-H522 lung was above 100 µM each time. Further, the TGI in the assay on SF-539 CNS, in the assay on SK-MEL-5 melanoma, in the assay with SNB-19 CNS and in the assay on SR leukemia was above 100 µM throughout.
With `CC(=O)OC(Cc1c(O)c2c(C)cccc2oc1=O)C(C)(C)O` (stereo not given), the TGI in the assay on HCT-15 colon, in the assay with HT29 colon, with MDA-MB-435, with MDA-N, with NCI-H226 lung and in the assay on NCI-H522 lung was above 100 µM in each case. Moreover, the TGI with SF-539 CNS, in the assay on SK-MEL-5 melanoma, with SNB-19 CNS and in the assay with SR leukemia was above 100 µM throughout.
Regarding `CNC1(C(=O)O)CC1`, the TGI in the assay on HCT-15 colon, in the assay on HT29 colon, in the assay on MDA-MB-435, in the assay with MDA-N, in the assay with NCI-H226 lung and in the assay on NCI-H522 lung was above 100 µM each time. The TGI with SF-539 CNS, with SK-MEL-5 melanoma, in the assay on SNB-19 CNS and in the assay with SR leukemia was above 100 µM in each case.
Regarding `O=C1C(c2cnc3ccccc3n2)=C(O)c2ccccc21`, the TGI is 9.75 µM in the assay on HCT-15 colon; above 100 µM in the assay on HT29 colon; above 100 µM in the assay on MDA-MB-435; above 100 µM with MDA-N; above 100 µM in the assay with NCI-H226 lung; above 100 µM with NCI-H522 lung. The TGI in the assay on SF-539 CNS, in the assay on SK-MEL-5 melanoma, in the assay on SNB-19 CNS and in the assay on SR leukemia was above 100 µM each time.
On to `CCCCCCCCCCCCCCCCCCOCC(O)COP(=O)(O)OCC1OC(n2ccc(N)nc2=O)C(O)C1O` (stereo not given), for which the TGI was 47.9 µM in the assay with HCT-15 colon; 50.7 µM in the assay on HT29 colon; above 100 µM in the assay on MDA-MB-435; above 100 µM in the assay with MDA-N; above 100 µM in the assay on NCI-H226 lung; 41.8 µM in the assay on NCI-H522 lung. Further, the TGI with SF-539 CNS is 34.4 µM; in the assay on SK-MEL-5 melanoma, above 100 µM; in the assay with SNB-19 CNS, 24.6 µM; with SR leukemia, 40.4 µM.
With `CCOC(=O)NN(C(=O)OCC)c1c(C)cc(C)cc1C`, the TGI in the assay with HCT-15 colon, in the assay with HT29 colon, in the assay with MDA-MB-435, in the assay with MDA-N, in the assay on NCI-H226 lung and in the assay on NCI-H522 lung was above 100 µM each time. Also, the TGI with SF-539 CNS, in the assay on SK-MEL-5 melanoma, with SNB-19 CNS and in the assay on SR leukemia was above 100 µM each time.
With `O=C(N/N=C/c1ccccc1)c1cccc2nc3ccccc3nc12`, the TGI with HCT-15 colon, in the assay with HT29 colon, in the assay on MDA-MB-435, in the assay on MDA-N, in the assay with NCI-H226 lung and in the assay with NCI-H522 lung was above 100 µM throughout. Besides, the TGI in the assay with SF-539 CNS was above 100 µM; in the assay with SK-MEL-5 melanoma it was 18 µM; in the assay on SNB-19 CNS, above 100 µM; in the assay with SR leukemia it was above 100 µM.
On to `CC(=O)OC(C)(C)CCC(=O)[C@](C)(O)[C@H]1[C@H](O)C[C@@]2(C)[C@@H]3CCc4c(cc(OC5OC(CO)C(O)C(O)C5O)c(O)c4C)C3(C)C(=O)C[C@]12C` (stereo not given in full), for which the TGI in the assay on HCT-15 colon, with HT29 colon, in the assay on MDA-MB-435, with MDA-N, with NCI-H226 lung and in the assay on NCI-H522 lung was above 100 µM throughout. Also, the TGI in the assay with SF-539 CNS, with SK-MEL-5 melanoma, in the assay on SNB-19 CNS and in the assay on SR leukemia was above 100 µM throughout.
Take `Cc1ccc(Nc2nc3c(=O)n(C)c(=O)n(C)c3nc2Nc2ccc(C)cc2)cc1`: the TGI in the assay on HCT-15 colon is 11.8 µM; in the assay with HT29 colon, 23.4 µM; with MDA-MB-435 it was 25.1 µM; in the assay on MDA-N it was 24.2 µM; in the assay with NCI-H226 lung, above 100 µM; with NCI-H522 lung, 2.42 µM. Also, the TGI is 26.7 µM in the assay with SF-539 CNS, 31 µM in the assay with SK-MEL-5 melanoma, above 100 µM with SNB-19 CNS and above 100 µM with SR leukemia.
Consider `C=C1C[C@H](O)[C@H](Br)C(C)(C)C12CCC(C)(Cl)C(Br)C2` (stereo not given in full), for which the TGI turned out to be 19.3 µM in the assay on HCT-15 colon; 0.895 µM with HT29 colon; 11.7 µM in the assay with MDA-MB-435; 10.8 µM with MDA-N; 12.7 µM in the assay on NCI-H226 lung; 15 µM in the assay on NCI-H522 lung. In addition, the TGI was found to be 42.2 µM in the assay on SF-539 CNS, 12.2 µM in the assay with SK-MEL-5 melanoma, 10.4 µM with SNB-19 CNS and 19.7 µM in the assay with SR leukemia.
As for `CN1CC2CN(Cc3ccccc3)CCN2c2cccnc21` (stereo not given), the TGI with HCT-15 colon was above 100 µM; with HT29 colon it was 87.9 µM; in the assay with MDA-MB-435, above 100 µM; in the assay on MDA-N it was above 100 µM; in the assay on NCI-H226 lung, above 100 µM; in the assay with NCI-H522 lung, above 100 µM. The TGI in the assay on SF-539 CNS, in the assay with SK-MEL-5 melanoma, in the assay with SNB-19 CNS and in the assay on SR leukemia was above 100 µM each time.
Consider `O=C(c1cc2c(c3ccccc13)NC1(CCCCC1)N=C2C(F)(F)F)C(F)(F)F`, for which the TGI with HCT-15 colon worked out at 16.7 µM; in the assay on HT29 colon, 13.4 µM; in the assay with MDA-MB-435, 12.5 µM; in the assay with MDA-N, 14.2 µM; with NCI-H226 lung, 11 µM; in the assay on NCI-H522 lung, 6.95 µM. Also, the TGI worked out at 5.59 µM in the assay with SF-539 CNS, 18.2 µM in the assay on SK-MEL-5 melanoma, 18.7 µM in the assay on SNB-19 CNS and 13.2 µM in the assay with SR leukemia.
For the molecule `CC(=O)N(C(C)=O)c1cc2c3c(c1)CCCN3CCC2`, the TGI in the assay with HCT-15 colon, in the assay on HT29 colon, with MDA-MB-435, with MDA-N, in the assay on NCI-H226 lung and in the assay on NCI-H522 lung was above 10 µM in each case. Besides, the TGI in the assay on SF-539 CNS, in the assay with SK-MEL-5 melanoma, with SNB-19 CNS and in the assay with SR leukemia was above 10 µM each time.
On to `CC1C(C#N)(C#N)C(C#N)=C(N)C1(Cl)[N+](=O)[O-]` (stereo not given), for which the TGI came out at 13.1 µM in the assay with HCT-15 colon; 23.5 µM in the assay with HT29 colon; 31.6 µM with MDA-MB-435; 21.3 µM in the assay on MDA-N; 31.6 µM in the assay with NCI-H226 lung; 6.1 µM in the assay on NCI-H522 lung. The TGI with SF-539 CNS came out at 25.2 µM; in the assay on SK-MEL-5 melanoma it was 25.4 µM; with SNB-19 CNS, 35 µM; in the assay with SR leukemia, 26.5 µM.
Regarding `O=C(c1ccccc1)N1C(=S)N(c2ccccn2)C(=Nc2ccccc2)C1=Nc1ccccc1`, the TGI in the assay on HCT-15 colon was 14.9 µM; in the assay on HT29 colon, above 100 µM; in the assay on MDA-MB-435, above 58 µM; in the assay on MDA-N, above 50.7 µM; with NCI-H226 lung it was above 100 µM; with NCI-H522 lung, 5.61 µM. Further, the TGI with SF-539 CNS is 44.9 µM; with SK-MEL-5 melanoma, above 50 µM; in the assay with SNB-19 CNS, above 96.2 µM; with SR leukemia it was above 63 µM.

For the origin of these results see PubChem BioAssay (NCI).
